Test results published in US9796686B2, “Antibacterial quinazoline-4(3H)-one derivatives” (priority 2014, dated 2017).
≈ marks a conversion by molar mass, not a printed value.

How the values were obtained:
Test in all cases: Bacterial growth minimal inhibitory concentration, microdilution in cation-adjusted Mueller-Hinton Broth (CLSI M7-A7)
Assay type in all cases: cell-based
E. coli ATCC25922 = settings: quinolone-sensitive strain; for MIC: Escherichia coli, ATCC25922, read-out: MIC for E. coli ATCC25922
Procedure: (§1) Minimal Inhibitory Concentrations (MICs; mg/L) were determined in cation-adjusted Mueller-Hinton Broth by a microdilution method following the description given in “Methods for Dilution Antimicrobial Susceptibility Tests for Bacteria that Grow Aerobically”, Approved standard, 7th ed., Clinical and Laboratory Standards Institute (CLSI) Document M7-A7, Wayne, Pa., U.S.A. (2006).
(§2) All Example compounds were tested against several Gram-positive and Gram-negative bacteria. […] K. pneumoniae A-651 is a multiply-resistant strain (in particular quinolone-resistant), while E. coli ATCC25922 and P. aeruginosa ATCC27853 are quinolone-sensitive strains.

P. aeruginosa ATCC27853 = settings: quinolone-sensitive strain; for MIC: Pseudomonas aeruginosa, ATCC27853, read-out: MIC for P. aeruginosa ATCC27853
Procedure: as §1, §2

K. pneumoniae A-651 = settings: multiply-resistant strain (in particular quinolone-resistant); for MIC: Klebsiella pneumoniae, A651, read-out: MIC for K. Pneumoniae A-651
Procedure: as §1, §2

Row | Compound | MIC (E. coli ATCC25922) | MIC (P. aeruginosa ATCC27853) | MIC (K. pneumoniae A-651) | MIC for E. coli ATCC25922 (E. coli ATCC25922) | MIC for P. aeruginosa ATCC27853 (P. aeruginosa ATCC27853) | MIC for K. Pneumoniae A-651 (K. pneumoniae A-651)
1 | C[C@@](CCn1cnc2cc(C#CC#C[C@@H](O)CO)ccc2c1=O)(C(=O)NO)S(C)(=O)=O [Example 10, (R)-4-(7-((R)-5,6-dihydroxyhexa-1,3-diyn-1-yl)-4-oxoquinazolin-3(4H)-yl)-N-hydroxy-2-methyl-2-(methylsulfonyl)butanamide] | 8 µg/mL (≈ 17.9 µM) | 4 µg/mL (≈ 8.94 µM) | 8 µg/mL (≈ 17.9 µM) | – | – | –
2 | C[C@@](CCn1cnc2cc(C#CC#C[C@@H]3C[C@H]3CO)c(F)cc2c1=O)(C(=O)NO)S(C)(=O)=O [Example 11, (R)-4-(6-fluoro-7-(((1R,2R)-2-(hydroxymethyl)cyclopropyl)buta-1,3-diyn-1-yl)-4-oxoquinazolin-3(4H)-yl)-N-hydroxy-2-methyl-2-(methylsulfonyl)butanamide] | ≤ 0.063 µg/mL | 1 µg/mL (≈ 2.1 µM) | 0.25 µg/mL (≈ 0.526 µM) | – | – | –
3 | C[C@@](CCn1cnc2cc(C#CC#CC3(CO)CC3)c(F)cc2c1=O)(C(=O)NO)S(C)(=O)=O [Example 12, (R)-4-(6-fluoro-7-((1-(hydroxymethyl)cyclopropyl)buta-1,3-diyn-1-yl)-4-oxoquinazolin-3(4H)-yl)-N-hydroxy-2-methyl-2-(methylsulfonyl)butanamide] | 0.25 µg/mL (≈ 0.526 µM) | 2 µg/mL (≈ 4.21 µM) | 0.5 µg/mL (≈ 1.05 µM) | – | – | –
4 | C[C@@](CCn1cnc2cc(C#CC#CC34CC(CO)(C3)C4)ccc2c1=O)(C(=O)NO)S(C)(=O)=O [Example 13, (R)-N-hydroxy-4-(7-((3-(hydroxymethyl)bicyclo[1.1.1]pentan-1-yl)buta-1,3-diyn-1-yl)-4-oxoquinazolin-3(4H)-yl)-2-methyl-2-(methylsulfonyl)butanamide] | 0.125 µg/mL (≈ 0.259 µM) | 0.5 µg/mL (≈ 1.03 µM) | 0.25 µg/mL (≈ 0.517 µM) | – | – | –
5 | C[C@@](CCn1cnc2cc(C#Cc3ccc(OCCO)cc3)ccc2c1=O)(C(=O)NO)S(C)(=O)=O [Example 14, (R)-N-hydroxy-4-(7-((4-(2-hydroxyethoxy)phenyl)ethynyl)-4-oxoquinazolin-3(4H)-yl)-2-methyl-2-(methylsulfonyl)butanamide] | 0.25 µg/mL (≈ 0.5 µM) | 16 µg/mL (≈ 32 µM) | 0.5 µg/mL (≈ 1 µM) | – | – | –
6 | C[C@@](CCn1cnc2cc(C#CC#C[C@@H]3C[C@@H](O)[C@@H](O)C3)ccc2c1=O)(C(=O)NO)S(C)(=O)=O [Example 15, (R)-4-(7-(((1s,3R,4S)-3,4-dihydroxycyclopentyl)buta-1,3-diyn-1-yl)-4-oxoquinazolin-3(4H)-yl)-N-hydroxy-2-methyl-2-(methylsulfonyl)butanamide] | – | – | – | 1 µg/mL | 2 µg/mL | 1 µg/mL
7 | C[C@@](CCn1cnc2cc(C#Cc3ccc(C4(CO)CC4)cc3)ccc2c1=O)(C(=O)NO)S(C)(=O)=O [Example 16, (R)-N-hydroxy-4-(7-((4-(1-(hydroxymethyl)cyclopropyl)phenyl)ethynyl)-4-oxoquinazolin-3(4H)-yl)-2-methyl-2-(methylsulfonyl)butanamide] | 0.125 µg/mL (≈ 0.245 µM) | 4 µg/mL (≈ 7.85 µM) | 0.25 µg/mL (≈ 0.491 µM) | – | – | –
8 | C[C@@]1(CO)C[C@H]1C#CC#Cc1ccc2c(=O)n(CC[C@](C)(C(=O)NO)S(C)(=O)=O)cnc2c1 [Example 17, (R)-N-hydroxy-4-(7-(((1S,2R)-2-(hydroxymethyl)-2-methylcyclopropyl)buta-1,3-diyn-1-yl)-4-oxoquinazolin-3(4H)-yl)-2-methyl-2-(methylsulfonyl)butanamide] | ≤ 0.063 µg/mL | 0.5 µg/mL (≈ 1.06 µM) | 0.125 µg/mL (≈ 0.265 µM) | – | – | –
9 | C[C@@](CCn1cnc2cc(C#Cc3ccc([C@@H](O)CO)cc3)ccc2c1=O)(C(=O)NO)S(C)(=O)=O [Example 18, (R)-4-(7-((4((R)-1,2-dihydroxyethyl)phenyl)ethynyl)-4-oxoquinazolin-3(4H)-yl)-N-hydroxy-2-methyl-2-(methylsulfonyl)butanamide] | 0.5 µg/mL (≈ 1 µM) | 4 µg/mL (≈ 8.01 µM) | 2 µg/mL (≈ 4 µM) | – | – | –
10 | C[C@@]1(C#CC#Cc2ccc3c(=O)n(CC[C@](C)(C(=O)NO)S(C)(=O)=O)cnc3c2)C[C@H]1CO [Example 20, (R)-N-hydroxy-4-(7-(((1R,2R)-2-(hydroxymethyl)-1-methylcyclopropyl)buta-1,3-diyn-1-yl)-4-oxoquinazolin-3(4H)-yl)-2-methyl-2-(methylsulfonyl)butanamide] | 0.125 µg/mL (≈ 0.265 µM) | 1 µg/mL (≈ 2.12 µM) | 0.5 µg/mL (≈ 1.06 µM) | – | – | –
11 | CN(C)CC(=O)OCC1(c2ccc(C#Cc3ccc4c(=O)n(CC[C@](C)(C(=O)NO)S(C)(=O)=O)cnc4c3)cc2)CC1.Cl [Example 22] | – | – | – | 0.5 µg/mL | 16 µg/mL | 4 µg/mL

Now from value to compound, other results behind:

Row | MIC (E. coli ATCC25922) | MIC (P. aeruginosa ATCC27853) | MIC (K. pneumoniae A-651) | Compound | MIC for E. coli ATCC25922 (E. coli ATCC25922) | MIC for P. aeruginosa ATCC27853 (P. aeruginosa ATCC27853) | MIC for K. Pneumoniae A-651 (K. pneumoniae A-651)
12 | 0.25 µg/mL (≈ 0.526 µM) | 4 µg/mL (≈ 8.41 µM) | 0.5 µg/mL (≈ 1.05 µM) | C[C@@](CCn1cnc2c(F)c(C#CC#C[C@@H]3C[C@H]3CO)ccc2c1=O)(C(=O)NO)S(C)(=O)=O [Example 21, (R)-4-(8-fluoro-7-(((1R,2R)-2-(hydroxymethyl)cyclopropyl)buta-1,3-diyn-1-yl)-4-oxoquinazolin-3(4H)-yl)-N-hydroxy-2-methyl-2-(methylsulfonyl)butanamide] | – | – | –
13 | 0.5 µg/mL (≈ 1.05 µM) | 4 µg/mL (≈ 8.41 µM) | 0.5 µg/mL (≈ 1.05 µM) | C[C@@](CCn1cnc2c(F)c(C#CC#C[C@H]3C[C@@H]3CO)ccc2c1=O)(C(=O)NO)S(C)(=O)=O [Example 23, (R)-4-(8-fluoro-7-(((1S,2S)-2-(hydroxymethyl)cyclopropyl)buta-1,3-diyn-1-yl)-4-oxoquinazolin-3(4H)-yl)-N-hydroxy-2-methyl-2-(methylsulfonyl)butanamide] | – | – | –
14 | 0.25 µg/mL (≈ 0.53 µM) | 1 µg/mL (≈ 2.12 µM) | 0.25 µg/mL (≈ 0.53 µM) | C[C@]1(CO)C[C@@H]1C#CC#Cc1ccc2c(=O)n(CC[C@](C)(C(=O)NO)S(C)(=O)=O)cnc2c1 [Example 24, (R)-N-hydroxy-4-(7-(((1R,2S)-2-(hydroxymethyl)-2-methylcyclopropyl)buta-1,3-diyn-1-yl)-4-oxoquinazolin-3(4H)-yl)-2-methyl-2-(methylsulfonyl)butanamide] | – | – | –
15 | 0.25 µg/mL | 1 µg/mL | 0.5 µg/mL | C[C@@](CCn1cnc2cc(C#CC#CC3(N)CC3)ccc2c1=O)(C(=O)NO)S(C)(=O)=O.O=CO [Example 25, (R)-4-(7-((1-aminocyclopropyl)buta-1,3-diyn-1-yl)-4-oxoquinazolin-3(4H)-yl)-N-hydroxy-2-methyl-2-(methylsulfonyl)butanamide formate] | – | – | –
16 | 1 µg/mL (≈ 2.05 µM) | 1 µg/mL (≈ 2.05 µM) | 1 µg/mL (≈ 2.05 µM) | C[C@@](CCn1cnc2cc(C#CC#C[C@@H]3C[C@H]3[C@H](O)CO)ccc2c1=O)(C(=O)NO)S(C)(=O)=O [Example 26, (R)-4-(7-(((1R,2R)-2-((S)-1,2-dihydroxyethyl)cyclopropyl)buta-1,3-diyn-1-yl)-4-oxoquinazolin-3(4H)-yl)-N-hydroxy-2-methyl-2-(methylsulfonyl)butanamide] | – | – | –
17 | 1 µg/mL | 8 µg/mL | 4 µg/mL | C[C@@](CCn1cnc2cc(C#CC#CC3CCC(NC(=O)CN)C3)c(F)cc2c1=O)(C(=O)NO)S(C)(=O)=O.Cl (stereo partly drawn) [Example 27, (R)-4-(7-((3-(2-aminoacetamido)cyclopentyl)buta-1,3-diyn-1-yl)-6-fluoro-4-oxoquinazolin-3(4H)-yl)-N-hydroxy-2-methyl-2-(methylsulfonyl)butanamide hydrochloride] | – | – | –
18 | 8 µg/mL | 8 µg/mL | 8 µg/mL | C[C@@](CCn1cnc2cc(C#CC#C[C@@H]3C[C@H]3CN)c(F)cc2c1=O)(C(=O)NO)S(C)(=O)=O.Cl [Example 28, (R)-4-(7-(((1R,2R)-2-(aminomethyl)cyclopropyl)buta-1,3-diyn-1-yl)-6-fluoro-4-oxoquinazolin-3(4H)-yl)-N-hydroxy-2-methyl-2-(methylsulfonyl)butanamide hydrochloride] | – | – | –
